“And” between values parts separate entries of the source, which are not always exact repeats. Equal values may be shown once. Read-outs that look alike come from different tables or passages of the source.
Experiments:
EV-A71 = test: microbe, parasite or virus in culture; type: cell-based, enterovirus A71; details: for EC50: Enterovirus A
EV-D68 (strain Fermon) = type: cell-based, enterovirus D68
in vitro [1] = details: human
in vitro [2] = details: human; remark: listed apart in the source
EV-A71 (strain BrCr) = type: cell-based, enterovirus A71
in vitro [3] = details: monkey
human NET = target: T1, human NET (Homo sapiens, UniProt P23975); type: cell-based; details: for NET, Mean (Figure 8B): Control = 100; for NET, Mean as % (Figure 8B): Control = 100%
T1 construct: expressed in transfected cells; host or cells: HEK293 (gift of Dr. Hoener, F. Hoffmann-La Roche)
T1 sequence (P23975 whole entry): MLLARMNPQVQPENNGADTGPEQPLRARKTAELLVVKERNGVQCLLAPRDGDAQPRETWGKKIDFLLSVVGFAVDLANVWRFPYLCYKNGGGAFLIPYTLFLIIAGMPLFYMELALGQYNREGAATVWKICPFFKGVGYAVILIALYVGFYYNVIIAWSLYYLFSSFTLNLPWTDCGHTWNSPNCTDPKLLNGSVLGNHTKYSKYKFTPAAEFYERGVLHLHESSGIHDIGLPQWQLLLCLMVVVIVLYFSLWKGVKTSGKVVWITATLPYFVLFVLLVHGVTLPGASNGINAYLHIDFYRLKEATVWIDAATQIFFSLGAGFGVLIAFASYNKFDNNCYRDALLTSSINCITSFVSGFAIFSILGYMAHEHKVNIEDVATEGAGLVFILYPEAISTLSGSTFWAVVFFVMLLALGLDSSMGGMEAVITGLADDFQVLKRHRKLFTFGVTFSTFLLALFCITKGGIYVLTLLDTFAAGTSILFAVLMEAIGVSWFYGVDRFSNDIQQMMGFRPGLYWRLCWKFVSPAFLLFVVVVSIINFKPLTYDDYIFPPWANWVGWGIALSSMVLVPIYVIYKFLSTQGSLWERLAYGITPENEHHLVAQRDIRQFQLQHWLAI

CV-A24 = test: microbe, parasite or virus in culture; type: cell-based, coxsackievirus A24
HRV-A2 = test: microbe, parasite or virus in culture; type: cell-based, human rhinovirus

COc1ccc(N(Cc2ccc(F)cc2)C(=O)c2cc[nH]c2)cc1 [Compound 12a, N-(4-Fluorobenzyl)-N-(4-methoxyphenyl)-1H-pyrrole-3-carboxamide]
Figure 7 dose-response raw data, EV-A71 (triplicate values) (EV-A71; Concentration 0.0046 µM): 12.3336 and 15.0352 and 19.2639
Figure 7 dose-response raw data, EV-A71 (triplicate values) (EV-A71; Concentration 0.0137 µM): 12.3336 and 12.2161 and 11.2764
Figure 7 dose-response raw data, EV-A71 (triplicate values) (EV-A71; Concentration 0.0412 µM): 12.0987 and 12.2161 and 13.2733
Figure 7 dose-response raw data, EV-A71 (triplicate values) (EV-A71; Concentration 0.1235 µM): 11.9812 and 14.0955 and 13.6257
Figure 7 dose-response raw data, EV-A71 (triplicate values) (EV-A71; Concentration 0.3704 µM): 12.5685 and 16.7972 and 13.6257
Figure 7 dose-response raw data, EV-A71 (triplicate values) (EV-A71; Concentration 1.1111 µM): 12.3336 and 15.0352 and 19.2639
Figure 7 dose-response raw data, EV-A71 (triplicate values) (EV-A71; Concentration 3.3333 µM): 12.3336 and 15.0352 and 19.2639
Figure 7 dose-response raw data, EV-A71 (triplicate values) (EV-A71; Concentration 11.1111 µM): 119.819 and 116.746 and 110.126
Figure 7 dose-response raw data, EV-A71 (triplicate values) (EV-A71; Concentration 33.3333 µM): 119.701 and 118.637 and 111.781
Figure 7 dose-response raw data, EV-A71 (triplicate values) (EV-A71; Concentration 100 µM): 110.819 and 116.746 and 120.126
EC50 (EV-A71; EVA71, HeLa R19, read-out: EC50 EV-A71): 4.03 ± 0.73 µM
EC50 (EV-A71; EVA71, HeLa R19, read-out: EC50 EV-A71 strain BrCr): 4.48 ± 0.42 µM
EC50 (EV-A71; EVA71, HeLa R19, read-out: EC50 EV-A71 strain TW/2728/04): 8.33 ± 0.65 µM
EC50 (EV-A71; EVA71, HeLa R19, read-out: EC50 EV-A71 strain TW/2945/98): 9.17 ± 0.41 µM
EC50 (EV-A71; EVA71, HeLa R19, read-out: EC50 EV-A71 strain TW/70811/08): 8.18 ± 0.61 µM
EC50 (EV-A71; EVA71, HeLa R19, read-out: EC50 EV-A71 strain TW/72232/04): 6.41 ± 2.09 µM
EC50 (EV-A71; EVA71, HeLa R19, read-out: EC50 EV-A71 strain TW/96016/08): 9.47 ± 0.04 µM
virus titer, TCID50/ml (Figure 2A) (EV-D68 (strain Fermon); compound concentration 0.01 µM): 6000000 TCID50/ml and 4677352 TCID50/ml
virus titer, TCID50/ml (Figure 2A) (EV-D68 (strain Fermon); compound concentration 0.1 µM): 7000000 TCID50/ml and 4677352 TCID50/ml and 8000000 TCID50/ml
virus titer, TCID50/ml (Figure 2A) (EV-D68 (strain Fermon); compound concentration 3 µM): 21379.6 TCID50/ml and 35481.3 TCID50/ml and 31622.8 TCID50/ml
virus titer, TCID50/ml (Figure 2A) (EV-D68 (strain Fermon); compound concentration 100 µM): 31622.8 TCID50/ml and 21379.6 TCID50/ml and 35481.3 TCID50/ml
CC50 (in vitro [1]; CC50 Average): > 30 µM
CC50 (in vitro [1]; CC50 HelaR19 Average): > 100 µM
CC50 (in vitro [1]; Exp 1 CC50): > 30 µM
CC50 (in vitro [1]; Exp 1 CC50 HelaR19): > 100 µM
CC50 (in vitro [1]; Exp2 CC50): > 30 µM
CC50 (in vitro [1]; Exp 2 CC50 HelaR19): > 100 µM
CC50 (in vitro [2]; CC50): > 100 µM
CC50 (in vitro [2]; CC50 Hap1 Average): > 100 µM
CC50 (in vitro [2]; Exp 1 CC50 Hap1): > 100 µM
CC50 (in vitro [2]; Exp 2 CC50 Hap1): > 100 µM
virus titer, TCID50/ml (Figure 2A) (EV-A71 (strain BrCr); compound concentration 1 µM): 316228 TCID50/ml
virus titer, TCID50/ml (Figure 2A) (EV-A71 (strain BrCr); compound concentration 3 µM): 316.228 TCID50/ml
virus titer, TCID50/ml (Figure 2A) (EV-A71 (strain BrCr); compound concentration 10 µM): 316.228 TCID50/ml
virus titer, TCID50/ml (Figure 2A) (EV-A71 (strain BrCr); compound concentration 30 µM): 316.228 TCID50/ml
virus titer, TCID50/ml (Figure 2A) (EV-A71 (strain BrCr); compound concentration 100 µM): 316.228 TCID50/ml
virus titer, TCID50/ml (Figure 2A) (EV-A71 (strain BrCr); compound concentration 150 µM): 316.228 TCID50/ml
CC50 (in vitro [3]; CC50): > 100 µM
CC50 (in vitro [3]; CC50 BGM Average): > 100 µM
CC50 (in vitro [3]; Exp 1 CC50 BGM): > 100 µM
CC50 (in vitro [3]; Exp 2 CC50 BGM): > 100 µM
NET, Mean (Figure 8B) (human NET; 1µM): 121.035
NET, Mean as % (Figure 8B) (human NET; 1µM): 121%
NET, Mean (Figure 8B) (human NET; 100µM): 112.597
NET, Mean as % (Figure 8B) (human NET; 100µM): 113%
inhibition of NET function (in words) (human NET; HEK293 cells expressing human NET, 1 μM or 100 μM): neither 12a, 19b, 19d, nor the combined compound 12b inhibited
EC50 (CV-A24; Enterovirus C, CVA24, HeLa R19, read-out: EC50 Average): 3.46 µM
EC50 (CV-A24; Enterovirus C, CVA24, HeLa R19, read-out: EC50 CV-A24): 3.51 ± 0.22 µM
EC50 (CV-A24; Enterovirus C, CVA24, HeLa R19, read-out: EC50 CV-A24 strain Joseph): 3.45 ± 0.42 µM
EC50 (CV-A24; Enterovirus C, CVA24, HeLa R19, read-out: EC50 Exp1): 3.29 µM
EC50 (CV-A24; Enterovirus C, CVA24, HeLa R19, read-out: EC50 Exp2): 3.73 µM
EC50 (CV-A24; read-out: EC50 Exp1): 3.04 µM
EC50 (CV-A24; read-out: EC50 Exp2): 3.87 µM
Figure 7 dose-response raw data, HRV-A2 (triplicate values) (HRV-A2; Concentration 0.0412 µM): 16.3585 and 16.9681 and 15.3831
Figure 7 dose-response raw data, HRV-A2 (triplicate values) (HRV-A2; Concentration 0.3704 µM): 15.1392 and 18.0654 and 15.3831
Figure 7 dose-response raw data, HRV-A2 (triplicate values) (HRV-A2; Concentration 1.1111 µM): 18.0654 and 16.8462 and 24.4056
Figure 7 dose-response raw data, HRV-A2 (triplicate values) (HRV-A2; Concentration 3.3333 µM): 11.1156 and 18.0654 and 21.7232
Figure 7 dose-response raw data, HRV-A2 (triplicate values) (HRV-A2; Concentration 11.1111 µM): 48.3946 and 57.9264 and 41.9398
Figure 7 dose-response raw data, HRV-A2 (triplicate values) (HRV-A2; Concentration 33.3333 µM): 99.5652 and 104.147 and 100.034
Figure 7 dose-response raw data, HRV-A2 (triplicate values) (HRV-A2; Concentration 100 µM): 89.5652 and 104.147 and 110.034

Reference: PMC7673538 (PLoS Biology, 2020)
